Reference: the supplement of paper PMC10307832

Assays:
Test in all cases: relative viability (nuclei count vs DMSO), 5 days (fraction); higher = more cells survive
Dovitinib = compound: CN1CCN(c2ccc3nc(-c4c(N)c5c(F)cccc5[nH]c4=O)[nH]c3c2)CC1 [Dovitinib]
How it was run: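 In 1536-well plates, lung cancer cell lines rested overnight at 37 °C before five library-drug doses (not always all listed), √10 apart, were pinned onto vehicle-anchored plates. Nuclei were counted with MetaXpress from 4× Hoechst images taken after 5 days without medium change. Viability compares treated-well with vehicle-well nuclei as a median over plates, and plates needed control CV below 25% plus at least one doubling to pass.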

Dovitinib + Vorinostat = compound: CN1CCN(c2ccc3nc(-c4c(N)c5c(F)cccc5[nH]c4=O)[nH]c3c2)CC1 [Dovitinib] + O=C(CCCCCCC(=O)Nc1ccccc1)NO [Vorinostat] (partner 1 µM)
How it was run: (§1)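 Relative viability equals treated-well nuclei counts divided by vehicle-well nuclei counts. Counts came from 4× images of lung cancer cell lines grown in 1536-well plates for 5 days after pin-tool dosing on the day after seeding. Dosing used one drug alone or a fixed anchor-drug dose plus five library-drug doses (not always all listed) in √10 steps, and values are medians of duplicate plates.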

Dovitinib + Palbociclib = compound: CN1CCN(c2ccc3nc(-c4c(N)c5c(F)cccc5[nH]c4=O)[nH]c3c2)CC1 [Dovitinib] + CC(=O)c1c(C)c2cnc(Nc3ccc(N4CCNCC4)cn3)nc2n(C2CCCC2)c1=O [Palbociclib] (partner 0.5 µM)
How it was run: as §1

Dovitinib + Trametinib = compound: CN1CCN(c2ccc3nc(-c4c(N)c5c(F)cccc5[nH]c4=O)[nH]c3c2)CC1 [Dovitinib] + CC(=O)Nc1cccc(-n2c(=O)n(C3CC3)c(=O)c3c(Nc4ccc(I)cc4F)n(C)c(=O)c(C)c32)c1 [Trametinib] (partner 0.02 µM)
How it was run: as §1

Dovitinib + Tozasertib = compound: CN1CCN(c2ccc3nc(-c4c(N)c5c(F)cccc5[nH]c4=O)[nH]c3c2)CC1 [Dovitinib] + Cc1cc(Nc2cc(N3CCN(C)CC3)nc(Sc3ccc(NC(=O)C4CC4)cc3)n2)n[nH]1 [Tozasertib] (partner 0.1 µM)
How it was run: as §1

Dovitinib + AZD7762 = compound: CN1CCN(c2ccc3nc(-c4c(N)c5c(F)cccc5[nH]c4=O)[nH]c3c2)CC1 [Dovitinib] + NC(=O)Nc1cc(-c2cccc(F)c2)sc1C(=O)N[C@H]1CCCNC1 [AZD7762] (partner 0.2 µM)
How it was run: as §1

Dovitinib + Luminespib = compound: CN1CCN(c2ccc3nc(-c4c(N)c5c(F)cccc5[nH]c4=O)[nH]c3c2)CC1 [Dovitinib] + CCNC(=O)c1noc(-c2cc(C(C)C)c(O)cc2O)c1-c1ccc(CN2CCOCC2)cc1 [Luminespib] (partner 0.01 µM)
How it was run: as §1

Dovitinib + OSI-027 = compound: CN1CCN(c2ccc3nc(-c4c(N)c5c(F)cccc5[nH]c4=O)[nH]c3c2)CC1 [Dovitinib] + COc1cccc2cc(-c3nc([C@H]4CC[C@H](C(=O)O)CC4)n4ncnc(N)c34)[nH]c12 [OSI-027] (partner 0.5 µM)
How it was run: as §1

Dovitinib + Olaparib = compound: CN1CCN(c2ccc3nc(-c4c(N)c5c(F)cccc5[nH]c4=O)[nH]c3c2)CC1 [Dovitinib] + O=C(c1cc(Cc2n[nH]c(=O)c3ccccc23)ccc1F)N1CCN(C(=O)C2CC2)CC1 [Olaparib] (partner 8 µM)
How it was run: as §1

Dovitinib + Pemetrexed = compound: CN1CCN(c2ccc3nc(-c4c(N)c5c(F)cccc5[nH]c4=O)[nH]c3c2)CC1 [Dovitinib] + Nc1nc2[nH]cc(CCc3ccc(C(=O)N[C@@H](CCC(=O)O)C(=O)O)cc3)c2c(=O)[nH]1 [Pemetrexed] (partner 0.2 µM)
How it was run: as §1

Dovitinib + Foretinib = compound: CN1CCN(c2ccc3nc(-c4c(N)c5c(F)cccc5[nH]c4=O)[nH]c3c2)CC1 [Dovitinib] + COc1cc2c(Oc3ccc(NC(=O)C4(C(=O)Nc5ccc(F)cc5)CC4)cc3F)ccnc2cc1OCCCN1CCOCC1 [Foretinib] (partner 0.25 µM)
How it was run: as §1

Dovitinib + Phenformin = compound: CN1CCN(c2ccc3nc(-c4c(N)c5c(F)cccc5[nH]c4=O)[nH]c3c2)CC1 [Dovitinib] + N=C(N)NC(=N)NCCc1ccccc1 [Phenformin] (partner 250 µM)
How it was run: as §1

Dovitinib + Decitabine = compound: CN1CCN(c2ccc3nc(-c4c(N)c5c(F)cccc5[nH]c4=O)[nH]c3c2)CC1 [Dovitinib] + Nc1ncn([C@H]2C[C@H](O)[C@@H](CO)O2)c(=O)n1 [Decitabine] (partner 2 µM)
How it was run: as §1

Dovitinib + Dasatinib = compound: CN1CCN(c2ccc3nc(-c4c(N)c5c(F)cccc5[nH]c4=O)[nH]c3c2)CC1 [Dovitinib] + Cc1nc(Nc2ncc(C(=O)Nc3c(C)cccc3Cl)s2)cc(N2CCN(CCO)CC2)n1 [Dasatinib] (partner 0.075 µM)
How it was run: as §1

Cell Line: NCI-H2342
- relative viability (Dovitinib; 0.02 µM): 1.12
- relative viability (Dovitinib; 0.06325 µM): 0.992
- relative viability (Dovitinib; 0.2 µM): 1.1
- relative viability (Dovitinib; 0.6325 µM): 1.04
- relative viability (Dovitinib; 2 µM): 1.01
- relative viability (Dovitinib + Vorinostat; first compound 0.02 µM): 0.738
- relative viability (Dovitinib + Vorinostat; first compound 0.06325 µM): 0.71
- relative viability (Dovitinib + Vorinostat; first compound 0.2 µM): 0.781
- relative viability (Dovitinib + Vorinostat; first compound 0.6325 µM): 0.717
- relative viability (Dovitinib + Vorinostat; first compound 2 µM): 0.735
- relative viability (Dovitinib + Palbociclib; first compound 0.02 µM): 0.621
- relative viability (Dovitinib + Palbociclib; first compound 0.06325 µM): 0.517
- relative viability (Dovitinib + Palbociclib; first compound 0.2 µM): 0.553
- relative viability (Dovitinib + Palbociclib; first compound 0.6325 µM): 0.621
- relative viability (Dovitinib + Palbociclib; first compound 2 µM): 0.537
- relative viability (Dovitinib + Trametinib; first compound 0.02 µM): 1.06
- relative viability (Dovitinib + Trametinib; first compound 0.06325 µM): 0.93
- relative viability (Dovitinib + Trametinib; first compound 0.2 µM): 0.854
- relative viability (Dovitinib + Trametinib; first compound 0.6325 µM): 0.67
- relative viability (Dovitinib + Trametinib; first compound 2 µM): 0.75
- relative viability (Dovitinib + Tozasertib; first compound 0.02 µM): 0.602
- relative viability (Dovitinib + Tozasertib; first compound 0.06325 µM): 0.631
- relative viability (Dovitinib + Tozasertib; first compound 0.2 µM): 0.488
- relative viability (Dovitinib + Tozasertib; first compound 0.6325 µM): 0.488
- relative viability (Dovitinib + Tozasertib; first compound 2 µM): 0.504
- relative viability (Dovitinib + AZD7762; first compound 0.02 µM): 0.561
- relative viability (Dovitinib + AZD7762; first compound 0.06325 µM): 0.583
- relative viability (Dovitinib + AZD7762; first compound 0.2 µM): 0.488
- relative viability (Dovitinib + AZD7762; first compound 0.6325 µM): 0.8
- relative viability (Dovitinib + AZD7762; first compound 2 µM): 0.473
- relative viability (Dovitinib + Luminespib; first compound 0.02 µM): 0.675
- relative viability (Dovitinib + Luminespib; first compound 0.06325 µM): 0.711
- relative viability (Dovitinib + Luminespib; first compound 0.2 µM): 0.741
- relative viability (Dovitinib + Luminespib; first compound 0.6325 µM): 0.692
- relative viability (Dovitinib + Luminespib; first compound 2 µM): 0.579
- relative viability (Dovitinib + OSI-027; first compound 0.02 µM): 0.634
- relative viability (Dovitinib + OSI-027; first compound 0.06325 µM): 0.579
- relative viability (Dovitinib + OSI-027; first compound 0.2 µM): 0.603
- relative viability (Dovitinib + OSI-027; first compound 0.6325 µM): 0.685
- relative viability (Dovitinib + OSI-027; first compound 2 µM): 0.722
- relative viability (Dovitinib + Olaparib; first compound 0.02 µM): 0.486
- relative viability (Dovitinib + Olaparib; first compound 0.06325 µM): 0.415
- relative viability (Dovitinib + Olaparib; first compound 0.2 µM): 0.439
- relative viability (Dovitinib + Olaparib; first compound 0.6325 µM): 0.486
- relative viability (Dovitinib + Olaparib; first compound 2 µM): 0.427
- relative viability (Dovitinib + Pemetrexed; first compound 0.02 µM): 0.787
- relative viability (Dovitinib + Pemetrexed; first compound 0.06325 µM): 0.74
- relative viability (Dovitinib + Pemetrexed; first compound 0.2 µM): 0.74
- relative viability (Dovitinib + Pemetrexed; first compound 0.6325 µM): 0.835
- relative viability (Dovitinib + Pemetrexed; first compound 2 µM): 0.777
- relative viability (Dovitinib + Foretinib; first compound 0.02 µM): 1.14
- relative viability (Dovitinib + Foretinib; first compound 0.06325 µM): 1.02
- relative viability (Dovitinib + Foretinib; first compound 0.2 µM): 1.09
- relative viability (Dovitinib + Foretinib; first compound 0.6325 µM): 1.17
- relative viability (Dovitinib + Foretinib; first compound 2 µM): 1.01
- relative viability (Dovitinib + Phenformin; first compound 0.02 µM): 0.709
- relative viability (Dovitinib + Phenformin; first compound 0.06325 µM): 0.561
- relative viability (Dovitinib + Phenformin; first compound 0.2 µM): 0.618
- relative viability (Dovitinib + Phenformin; first compound 0.6325 µM): 0.657
- relative viability (Dovitinib + Phenformin; first compound 2 µM): 0.701
- relative viability (Dovitinib + Decitabine; first compound 0.02 µM): 0.799
- relative viability (Dovitinib + Decitabine; first compound 0.06325 µM): 0.697
- relative viability (Dovitinib + Decitabine; first compound 0.2 µM): 0.672
- relative viability (Dovitinib + Decitabine; first compound 0.6325 µM): 0.756
- relative viability (Dovitinib + Decitabine; first compound 2 µM): 0.776
- relative viability (Dovitinib + Dasatinib; first compound 0.02 µM): 0.339
- relative viability (Dovitinib + Dasatinib; first compound 0.06325 µM): 0.324
- relative viability (Dovitinib + Dasatinib; first compound 0.2 µM): 0.337
- relative viability (Dovitinib + Dasatinib; first compound 0.6325 µM): 0.298
- relative viability (Dovitinib + Dasatinib; first compound 2 µM): 0.318

Cell Line: NCI-H1623
- relative viability (Dovitinib; 0.02 µM): 1.07
- relative viability (Dovitinib; 0.06325 µM): 0.98
- relative viability (Dovitinib; 0.2 µM): 0.916
- relative viability (Dovitinib; 0.6325 µM): 1
- relative viability (Dovitinib; 2 µM): 0.892
- relative viability (Dovitinib + Tozasertib; first compound 0.02 µM): 0.458
- relative viability (Dovitinib + Tozasertib; first compound 0.06325 µM): 0.427
- relative viability (Dovitinib + Tozasertib; first compound 0.2 µM): 0.495
- relative viability (Dovitinib + Tozasertib; first compound 0.6325 µM): 0.445
- relative viability (Dovitinib + Tozasertib; first compound 2 µM): 0.423
- relative viability (Dovitinib + Luminespib; first compound 0.02 µM): 0.493
- relative viability (Dovitinib + Luminespib; first compound 0.06325 µM): 0.605
- relative viability (Dovitinib + Luminespib; first compound 0.2 µM): 0.491
- relative viability (Dovitinib + Luminespib; first compound 0.6325 µM): 0.551
- relative viability (Dovitinib + Luminespib; first compound 2 µM): 0.516
- relative viability (Dovitinib + OSI-027; first compound 0.02 µM): 0.476
- relative viability (Dovitinib + OSI-027; first compound 0.06325 µM): 0.436
- relative viability (Dovitinib + OSI-027; first compound 0.2 µM): 0.456
- relative viability (Dovitinib + OSI-027; first compound 0.6325 µM): 0.384
- relative viability (Dovitinib + OSI-027; first compound 2 µM): 0.384
- relative viability (Dovitinib + Foretinib; first compound 0.02 µM): 0.81
- relative viability (Dovitinib + Foretinib; first compound 0.06325 µM): 0.821
- relative viability (Dovitinib + Foretinib; first compound 0.2 µM): 0.958
- relative viability (Dovitinib + Foretinib; first compound 0.6325 µM): 0.901
- relative viability (Dovitinib + Foretinib; first compound 2 µM): 0.893
- relative viability (Dovitinib + Phenformin; first compound 0.02 µM): 0.569
- relative viability (Dovitinib + Phenformin; first compound 0.06325 µM): 0.574
- relative viability (Dovitinib + Phenformin; first compound 0.2 µM): 0.602
- relative viability (Dovitinib + Phenformin; first compound 0.6325 µM): 0.617
- relative viability (Dovitinib + Phenformin; first compound 2 µM): 0.636
- relative viability (Dovitinib + Dasatinib; first compound 0.02 µM): 0.47
- relative viability (Dovitinib + Dasatinib; first compound 0.06325 µM): 0.527
- relative viability (Dovitinib + Dasatinib; first compound 0.2 µM): 0.615
- relative viability (Dovitinib + Dasatinib; first compound 0.6325 µM): 0.536
- relative viability (Dovitinib + Dasatinib; first compound 2 µM): 0.537
